Data on five compounds can be found in US6200989A, “2-alkylidene hydroxycumaranone derivatives” (Hoffmann-La Roche Inc., priority 1997, dated 2001).

Chain of uPAR (Q03405 23-305 limits assumed): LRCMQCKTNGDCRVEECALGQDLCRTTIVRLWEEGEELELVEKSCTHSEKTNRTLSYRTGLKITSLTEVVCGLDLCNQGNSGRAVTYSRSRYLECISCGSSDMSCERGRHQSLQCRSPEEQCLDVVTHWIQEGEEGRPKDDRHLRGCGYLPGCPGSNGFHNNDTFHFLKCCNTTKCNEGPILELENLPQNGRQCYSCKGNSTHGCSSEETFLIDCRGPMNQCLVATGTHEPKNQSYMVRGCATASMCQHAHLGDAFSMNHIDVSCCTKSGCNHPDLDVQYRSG

The assay concerns the target uPAR (Homo sapiens, UniProt Q03405). As to the kind of experiment: ELISA test: inhibition of human urokinase (uPA) binding to its specific receptor uPAR. The conditions noted are these: test substance preincubated 30 min at room temperature. The procedure: Compounds of the invention were tested (ELISA test) as inhibitors of human urokinase (uPA) binding to its specific receptor uPAR mAk (BIO-R4), according to the procedure described in Biol. Chem. Hoppe-Seyler, 376, 587-94 (1995) by Rettenberger et al. The assays are performed in Microtiterplates (96 wells). The following solutions are used:
washing buffer PBS-buffer (without Mg^2+ and Ca^2+)+0.05% Tween 20;
incubation buffer (IP): 1% skimmed milk powder in PBS-buffer (without Mg^2+ and Ca^2+);
BIO-R4 solution: 50 ng/well (0.5 (g/ml; 100 (l/well) in IP;
uPAR solution: 3 ng/well (30 ng/ml; 100 (l/well) in PBS-buffer (without Mg^2+ and Ca^2+);
blocking solution: 1% skimmed milk powder in washing buffer (dissolved at 37° C.);
uPA solution: 0.25 ng/well (5 ng/ml; 50 (l/well) in IP.
Detect ion solutions (per microtiterplate):
(1) 6 ml (100 mM Tris-Cl pH 7.2+0.15% Tween 80)+1.5 ml (10 (g) Plasminogen in aqua bidest;
(2) 6 ml (100 mM Tris-Cl pH 7.2+0.15% Tween 80)+1.5 ml (7.5 mg) chromozyme PL in aqua bidest.
The detection solution must be continuously stirred. Testing substances: the testing substances are dissolved in DMSO. They are used in the test system with a highest concentration of 100 (g/ml. The solutions are prepared using PBS.
Three controls are performed:
a) positive control: using 2% DMSO in PBS;
b) negative control: assay without receptor;
1) inhibition (IC95 at 0.25 mg/ml) with dextranesulfate (MW=500.000);
2) inhibition (IC90 at 1 (g/ml) with inactivated uPA (175 (g/ml).
Incubation is done as follows:
Each well is incubated by 100 (1 of BIO-R4 (c=0.5 (g/ml) for 1 hour at room temperature under shaking. After washing three times with the washing buffer, each well is incubated for 1 hour (37° C.) with 200 (l/well blocking solution. After triple washing each well is incubated for 1 hour at room temperature under shaking with 100 (l/well uPAR (c=30 ng/ml), then the wells are washed again three times with the washing buffer. The testing substance solution and the control solution, respectively, are added (50 (l/well) and are incubated for 30 minutes at room temperature under shaking. An additional 50 (l of uPA solution (c=2.5 ng/ml) are added. After 1 hour at room temperature a triple washing is performed.
For detection, the following procedure is used:
Incubation with 50 (l each of detection solution (1) and (2) at room temperature. After 20 minutes a yellow colour will be visible (the positive control reads an extinction of 1 after 45-60 minutes). The detection is performed at 405 nm (reference is 490 nm) using a Dynatech MR 7000 ELISA reader. To obtain the percentage of inhibition the following formula is used (E stands for extinction): [formula]
On the technique in general: In an ELISA, binding on a coated surface is turned into a signal by an enzyme label.
The compound `CC(C)=C1Oc2cccc(OCCCN3CCC(NC(=O)c4ccc(Cl)c(S(N)(=O)=O)c4)CC3)c2C1=O` [4-(3-(4-(3-aminosulfonyl-4-chlorobenzamido)piperidin-1yl)propoxy)-2-isopropylidenecumaran-3-one] showed an IC50 of 91.2 nM.

As to `CC(C)=C1Oc2cccc(OCCCCN3CCC(NC(=O)c4ccc(Cl)c(Cl)c4)CC3)c2C1=O` [4-(4-(4-(3,4-dichlorobenzamido)piperidin-1-yl)butoxy)-2-isopropylidenecumaran-3-one], the half-inhibitory concentration (IC50) was more than 19.3 nM.

`CC(C)=C1Oc2cccc(OCCOCCN3CCC(NC(=O)c4ccc(F)cc4)CC3)c2C1=O` [4-[(2-(2-(4-(4-fluorobenzamido)piperidin-1-yl)ethyl)oxy)ethyloxy]-2-isopropylidenecumaran-3-one] had an IC50 of 104 nM. This lies in the sub-micromolar range.

`CC(C)=C1Oc2cccc(OC/C=C/CN3CCC(NC(=O)c4ccc(Cl)c(Cl)c4)CC3)c2C1=O` [(E)-4-(4-(4-(3,4-dichlorobenzamido)piperidin-1-yl)-2-butenoxy)-2-isopropylidenecumaran-3-one] came in with a 50% inhibitory concentration (IC50) of more than 19.4 nM.

With `CC(C)=C1Oc2cccc(OC/C=C\CN3CCC(NC(=O)c4ccc(Cl)c(Cl)c4)CC3)c2C1=O` [(Z)-4-(4-(4-(3,4-dichlorobenzamido)piperidin-1-yl)-2-butenoxy)-2-isopropylidenecumaran-3-one], the concentration for half-maximal inhibition (IC50) was more than 19.4 nM.

Usually IC50 stands for the point on the concentration scale where inhibition reaches its midpoint. A low value points to higher potency.
